Where two headings read alike, the source gives them in different places.
Columns and labels:
Aap lectin domain = molecular target: T1, Aap lectin domain (Staphylococcus epidermidis, UniProt Q5HKE8); assay: ITC; format: binding; settings: pH 7.2, 50 mM phosphate, 150 mM NaCl, 25 °C
T1 sequence (Q5HKE8 351-605): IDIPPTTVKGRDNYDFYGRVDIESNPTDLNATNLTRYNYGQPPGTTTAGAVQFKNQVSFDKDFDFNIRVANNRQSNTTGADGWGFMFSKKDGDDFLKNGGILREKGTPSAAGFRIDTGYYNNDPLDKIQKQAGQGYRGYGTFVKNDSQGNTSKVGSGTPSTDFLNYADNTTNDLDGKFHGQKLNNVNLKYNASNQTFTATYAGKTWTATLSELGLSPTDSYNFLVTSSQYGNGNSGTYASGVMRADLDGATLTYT

SasG lectin domain = molecular target: T2, SasG lectin domain (Staphylococcus aureus, UniProt Q2G2B2); assay: ITC; format: binding; settings: pH 7.2, 50 mM phosphate, 150 mM NaCl, 25 °C
T2 sequence (Q2G2B2 163-419): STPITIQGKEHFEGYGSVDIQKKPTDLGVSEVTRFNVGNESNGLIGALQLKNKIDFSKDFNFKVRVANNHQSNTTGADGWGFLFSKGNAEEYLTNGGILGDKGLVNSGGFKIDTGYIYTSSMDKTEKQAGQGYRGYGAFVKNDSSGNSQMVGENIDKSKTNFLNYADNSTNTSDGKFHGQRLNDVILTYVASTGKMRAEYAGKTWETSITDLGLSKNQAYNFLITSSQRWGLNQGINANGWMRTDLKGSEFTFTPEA

| SMILES | Kd (Aap lectin domain) [µM] | ITC (SasG lectin domain) | Kd (Aap lectin domain; read-out: affinity) [µM] |
| --- | --- | --- | --- |
| CC(=O)N[C@H]1[C@H]([C@H](O)[C@H](O)CO)O[C@@](O[C@H]2[C@@H](O)[C@@H](CO)O[C@@H](O[C@H]3[C@H](O)[C@@H](NC(C)=O)C(O)O[C@@H]3CO)[C@@H]2O)(C(=O)O)C[C@@H]1O (stereo partly drawn) [3'-sialyl-N-acetyllactosamine] | 13 |  |  |
| CC(=O)N[C@H]1C(O)O[C@H](CO)[C@@H](O[C@@H]2O[C@H](CO)[C@H](O)[C@H](O)[C@H]2O)[C@@H]1O (stereo partly drawn) [N-acetyllactosamine] |  | We confirmed that SasG lectin is able to bind N-acetyllactosamine by ITC | ~130 |

Reference: PMC9900903 (bioRxiv, 2023)
